Reference: patent US6495604B1, “Cycloalkene derivatives, process for producing the same, and use” (Takeda Chemical Industries, Ltd., priority 1998, dated 2002)

Legend:
serum IL-1α = experiment: Effect on increase in blood cytokine level (LPS-treated mice): IL-1α; type: in vivo, BALB/c mice; details: Mus musculus; 30 mg/kg orally 1 hour before LPS 10 mg/kg i.p.; serum 6 hours after LPS; vs control group
Protocol: (§1) As a result of a defense mechanism against an infection or an immune abnormality, various in vivo cytokines are produced. Accordingly, an experimental animal model was used to examine the effect of a test compound on the increase in the blood cytokine level.
(§2) Female BALB/c mice (6 weeks old) were purchased and acclimatized for 1 week and assigned to the groups in each of which 6 to 8 animals were included. In a treatment group, 30 mg/kg of a test compound suspended in a 0.5% aqueous solution of methyl cellulose was given orally. In a control group, the vehicle was given similarly. After 1 hour, LPS (10 mg/kg) was given intraperitoneally to each animal in the treatment and control groups, and the blood was taken 1 hour after the LPS administration and examined for the serum concentrations of TNF-α. IL-1α, IL-1β and IL-6 concentrations were determined using the serum from the blood taken 6 hours after the LPS administration. Each cytokine was determined using an assay kit manufactured by Amersham.

[1] = test system: IL-1α production, RAW264.7; experiment: Cytokine production-inhibiting effect in RAW264.7: IL-1α; type: cell-based; details: Mus musculus, LPS 1.0 μg/ml in the absence of interferon gamma
Protocol: Using mouse macrophage cell line RAW264.7, a test compound was examined for its % inhibition of a cytokine production. The test compound was dissolved at 10 mM in N,N-dimethylformamide and dilutedwith an RPMI-1640 medium at the concentration of 0.1 mM. The concentration was further adjusted using the medium so that a final concentration ranging from 10 μM to 10 nM could be obtained by a 10-fold serial dilution and the test compound was added to a culture medium. On the day before the experiment, the cell was adjusted at 5×10^5/ml in an RPMI-1640 medium supplemented with 10% inactivated fetal calf serum and inoculated to a 96-well microplate at 1×10^5 cells/0.2 ml per well. After incubating at 37° C. under an atmosphere of 5% CO2/95% air overnight, the test compound adjusted as described above was added and then LPS and interferon-gamma were added at the final concentrations of 5 ng/ml and 1 U/ml, respectively. After further incubating overnight, culture supernatants were examined for the concentrations of TNF-α and IL-6. IL-1α was determined using 1.0 μg/ml of LPS in the absence of interferon gamma under otherwise similar conditions. Each cytokine was determined using an assay kit manufactured by Amersham. An IC50 represents the concentration of the test compound which inhibits 50% of the cytokine production.

serum IL-6 = experiment: Effect on increase in blood cytokine level (LPS-treated mice): IL-6; type: in vivo, BALB/c mice; details: Mus musculus; 30 mg/kg orally 1 hour before LPS 10 mg/kg i.p.; serum 6 hours after LPS; vs control group
Protocol: as §1, §2

serum TNF-α = experiment: Effect on increase in blood cytokine level (LPS-treated mice): TNF-α; type: in vivo, BALB/c mice; details: Mus musculus; 30 mg/kg orally 1 hour before LPS 10 mg/kg i.p.; serum 1 hour after LPS; vs control group
Protocol: as §1, §2

[2] = test system: NO production by RAW264.7 cell; experiment: NO production-inhibiting effect in RAW264.7 cells (nitrite ion by DAN fluorescence); type: cell-based, mouse; details: LPS 5 ng/ml + interferon gamma 1 U/ml, nitrite ion in culture supernatant after overnight incubation
Protocol: Mouse macrophage cell line RAW264.7 was used as an iNOS-inducible cell and a test compound was examined for its % inhibition of NO production. The test compound was dissolved at 10 mM in N,N-dimethylformamide and diluted with an RPMI-1640 medium at the concentration of 0.1 mM. The concentration was further adjusted using the medium so that a final concentration ranging from 10 μM to 10 nM could be obtained by a 10-fold serial dilution and the test compound was added to a culture medium. On the day before the experiment, the cell was adjusted at 5×10^5/ml in an RPMI-1640 medium supplemented with 10% inactivated fetal calf serum and inoculated to a 96-well microplate at 1×10^5 cells/0.2 ml per well. After incubating at 37° C. under an atmosphere of 5% CO2/95% air overnight, the test compound adjusted as described above was added and then LPS and interferon gamma were added at the final concentrations of 5 ng/ml and 1 U/ml, respectively. After further incubating overnight, culture supernatants were examined for the concentration of nitrite ion (stable metabolite of NO) which was used as an index for the NO production. The nitrite ion concentration was determined by adding 25 μl of 20 μg/ml of 2,3-diaminonaphthalene (DAN) to 50 μl of the culture supernatant, followed by incubating at room temperature for 10 minutes, followed by adding 25 μl of 0.5 N NaOH, followed by determining a fluorescence at 450 nm (excitation wavelength: 365 nm). An IC50 represents the concentration of the test compound which inhibits 50% of the NO production.

serum IL-1β = experiment: Effect on increase in blood cytokine level (LPS-treated mice): IL-1β; type: in vivo, BALB/c mice; details: Mus musculus; 30 mg/kg orally 1 hour before LPS 10 mg/kg i.p.; serum 6 hours after LPS; vs control group
Protocol: as §1, §2

[3] = test system: blood nitric oxide concentration (NOx); experiment: Effect on increase in blood nitric oxide level (LPS-treated mice); type: in vivo, BALB/c mice; details: Mus musculus; 30 mg/kg orally 1 hour before LPS 10 mg/kg i.p.; serum nitrite+nitrate 6 hours after LPS; vs control group; read-out: Inhibition % of NO in blood
[4] = Mus musculus, RAW264.7, RAW264.7

| Molecule | IC50 [2, 4] | other results |
| --- | --- | --- |
| CCOC(=O)C1=CCCCC1S(=O)(=O)Nc1ccc(Cl)cc1F (stereo not shown) [Compound 1, ethyl 6-[N-(4-chloro-2-fluorophenyl)sulfamoyl]-1-cyclohexene-1-carboxylate] | 0.12 to 0.32 µM | inhibition at 30 mg/kg (serum IL-1α): 97%; IC50 [1]: 0.39 µM; inhibition at 30 mg/kg (serum IL-6): 89%; inhibition at 30 mg/kg (serum TNF-α): 98%; inhibition at 30 mg/kg (serum IL-1β): 73%; inhibition at 30 mg/kg [3]: 76% |
| CCOC(=O)C1=CCCCC1S(=O)(=O)Nc1ccc(F)cc1F (stereo not shown) [Compound 3, ethyl 6-[N-(2,4-difluorophenyl)sulfamoyl]-1-cyclohexene-1-carboxylate] | – | IC50 ([2]; RAW264.7): 0.013 to 0.039 µM; inhibition at 30 mg/kg [3]: 90% |
| CCOC(=O)C1=CCCCC1S(=O)(=O)Nc1ccc(-n2cnnn2)cc1 (stereo not shown) [Compound 48, ethyl 6-[N-[4-(1H-tetrazol-1-yl)phenyl)sulfamoyl]-1-cyclohexene-1-carboxylate] | 3.8 µM | – |
| CCOC(=O)C1=CCCCC1S(=O)(=O)Nc1ccc(-n2ccnn2)cc1 (stereo not shown) [Compound 49, ethyl 6-[N-[4-(1H-1,2,3-triazol-1-yl)phenyl)sulfamoyl]-1-cyclohexene-1-carboxylate] | 5.6 µM | – |
| CCOC(=O)C1=CCCCC1S(=O)(=O)Nc1ccccc1C(F)(F)F (stereo not shown) [Compound 50, ethyl 6-[N-(2-trifluoromethylphenyl)sulfamoyl]-1-cyclohexene-1-carboxylate] | 2 µM | – |
| CCOC(=O)C1=CCCCC1S(=O)(=O)Nc1ccc(C(=O)OC)cc1 (stereo not shown) [Compound 51, ethyl 6-(N-(4-methoxycarbonylphenyl)sulfamoyl]-1-cyclohexene-1-carboxylate] | 4 µM | – |
| O=C(OCc1ccccc1)C1=CCCCC1S(=O)(=O)Nc1ccc(F)cc1F (stereo not shown) [Compound 52, benzyl 6-[N-(2,4-difluorophenyl)sulfamoyl]-1-cyclohexene-1-carboxylate] | 4.3 µM | – |
| CCOC(=O)C1=CCCCC1S(=O)(=O)Nc1ccc(CNC(=NC(=O)OC(C)(C)C)NC(=O)OC(C)(C)C)cc1 (stereo not shown) [Compound 53, ethyl 6-[N-[4-[2,3-bis(t-butoxycarbonyl)guanidinomethyl]phenyl]sulfamoyl]-1-cyclohexene-1-carboxylate] | 2.4 µM | – |
| CCOC(=O)C1=CCCCC1S(=O)(=O)Nc1ccc(C(=O)OC)cc1Cl (stereo not shown) [Compound 54, ethyl 6-[N-(2-chloro-4-methoxycarbonylphenyl)sulfamoyl]-1-cyclohexene-1-carboxylate] | 2.3 µM | – |
| CCOC(=O)C1=CCCCC1S(=O)(=O)Nc1ccc(C#N)cc1Cl (stereo not shown) [Compound 55, ethyl 6-[N-(2-chloro-4-cyanophenyl)sulfamoyl]-1-cyclohexene-1-carboxylate] | 3.3 µM | – |
| O=C(OCCO)C1=CCCCC1S(=O)(=O)Nc1ccc(F)cc1F (stereo not shown) [Compound 56, 2-hydroxyethyl 6-[N-(2,4-difluorophenyl)sulfamoyl]-1-cyclohexene-1-carboxylate] | 1 µM | – |
| CCOC(=O)C1=CCCCC1S(=O)(=O)Nc1ccc(-n2cncn2)cc1F (stereo not shown) [Compound 57, ethyl 6-[N-[2-fluoro-4-(IH-1,2,4-triazol-1-yl)phenyl)sulfamoyl]-1-cyclohexene-1-carboxylate] | – | IC50 ([2]; RAW264.7): 4.6 µM |
| CCOC(=O)C1=CCCC1S(=O)(=O)Nc1ccc(F)cc1F (stereo not shown) [Compound 58, ethyl 5-[N-(2,4-difluorophenyl)sulfamoyl]-1-cyclopentene-1-carboxylate] | 0.39 µM | – |
| CC(C)(C)OC(=O)COC(=O)C1=CCCCC1S(=O)(=O)Nc1ccc(F)cc1F (stereo not shown) [Compound 59, t-butyl [6-[N-(2,4-difluorophenyl)sulfamoyl]-1-cyclohexen-1-yl]carbonyloxyacetate] | 0.54 µM | – |
| O=C(O)COC(=O)C1=CCCCC1S(=O)(=O)Nc1ccc(F)cc1F (stereo not shown) [Compound 60, [6-[N-(2,4-difluorophenyl)sulfamoyl]-1-cyclohexen-1-yl]carbonyloxyacetic acid] | 7.9 µM | – |
| CCOC(=O)C1=CCCCCC1S(=O)(=O)Nc1ccc(F)cc1F (stereo not shown) [Compound 61, ethyl 7-[N-(2,4-difluorophenyl)sulfamoyl]-1-cycloheptene-1-carboxylate] | 2.8 µM | – |
| CCOC(=O)C1=CCCCC1S(=O)(=O)Nc1ccc(C(=O)NCC(=O)OC(C)(C)C)cc1Cl (stereo not shown) [Compound 62, ethyl 6-[N-[2-chloro-4-(N-t-butoxycarbonylmethylcarbamoyl)phenyl]sulfamoyl]-1-cyclohexene-1-carboxylate] | 3.8 µM | – |
| d-ethyl 6-[N-(2,4-difluorophenyl)sulfamoyl]-1-cyclohexene-1-carboxylate [Compound 20] | – | IC50 ([2]; RAW264.7): 0.005 µM |
| ethyl 6-[N-3-fluorophenyl]sulfamoyl)-1-cyclohexene-1-carboxylate [Compound 11] | – | IC50 ([2]; RAW264.7): 0.31 µM |

The next lines start with results.

| IC50 [2, 4] | Molecule | other results |
| --- | --- | --- |
| 8.4 µM | CCOC(=O)CNC(=O)c1ccc(NS(=O)(=O)C2CCCC=C2C(=O)OCC)c(Cl)c1 (stereo not shown) [Compound 63, ethyl 6-[N-[2-chloro-4-(N-ethoxycarbonylmethylcarbamoyl)phenyl]sulfamoyl]-1-cyclohexene-1-carboxylate] | – |
| 0.25 µM | CCOC(=O)C1=CCCC1S(=O)(=O)Nc1ccc(F)cc1Cl (stereo not shown) [Compound 64, ethyl 5-[N-(2-chloro-4-fluorophenyl)sulfamoyl]-1-cyclopentene-1-carboxylate] | – |
| 0.32 µM | CCOC(=O)C1=CCCCCC1S(=O)(=O)Nc1ccc(F)cc1Cl (stereo not shown) [Compound 65, ethyl 7-[N-(2-chloro-4-fluorophenyl)sulfamoyl]-1-cycloheptene-1-carboxylate] | – |
| 8.1 µM | CCOC(=O)C1=C(S(=O)(=O)Nc2ccc(F)cc2F)CCC1 [Compound 66, ethyl 2-[N-(2,4-difluorophenyl)sulfamoyl]-1-cyclopentene-1-carboxylate] | – |
| 6 µM | COc1ccc(N2C(=O)C3=C(CCCC3)S2(=O)=O)cc1 [Compound 67, 2-(4-methoxyphenyl)-4,5,6,7-tetrahydro-1,2-benzoisothiazole-3(2H)-one 1,1-dioxide] | – |
| 5.1 µM | O=C1C2=C(CCCC2)S(=O)(=O)N1c1ccc(F)cc1 [Compound 68, 2-(4-fluorophenyl)-4,5,6,7-tetrahydro-1,2-benzoisothiazol-3(2H)-one 1,1-dioxide] | – |
| 6.8 µM | O=C1C2=C(CCCC2)S(=O)(=O)N1c1ccc(OCC(F)(F)C(F)(F)F)cc1 [Compound 69, 2-[4-(2,2,3,3,3-pentafluoropropoxy)phenyl]-4,5,6,7-tetrahydro-1,2-benzisothiazol-3(2H)-one 1,1-dioxide] | – |
| 0.35 µM | O=C1C2=CCCCC2S(=O)(=O)N1c1ccc(F)cc1F (stereo not shown) [Compound 70, 2-(2,4-difluorophenyl)-5,6,7,7a-tetrahydro-1,2-benzoisothiazol-3(2H)-one 1,1-dioxide] | – |
